# Measured values from PubChem BioAssay AID248 (DTP/NCI, 2004).
# “And” between values parts separate entries of the source, which are not always exact repeats. Equal entries are not always repeated. Inconclusive results and toxic doses are left out.
# Test system: L1210 leukemia ip in BDF1 mice, survival T/C
# Assay: NCI In Vivo Anticancer Drug Screen. Data for tumor model L1210 Leukemia (intraperitoneal) in B6D2F1 (BDF1) mice
# Details: endpoint: mean survival time, higher = longer survival
# In short: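 Antitumor effect is assessed in tumor-bearing animals. Survival in the compound arm is compared with a vehicle-dosed control arm and expressed as their quotient.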
# [1] = dose: 20.0 mg/kg/injection, schedule: Q01DX001 (ip), vehicle: saline
# [2] = dose: 25.0 mg/kg/injection, schedule: Q04DX003 (ip), vehicle: saline
# [3] = dose: 50.0 mg/kg/injection, schedule: Q04DX003 (ip), vehicle: saline
# [4] = dose: 50.0 mg/kg/injection, schedule: Q01DX001 (ip), vehicle: saline
# [5] = dose: 100.0 mg/kg/injection, schedule: Q01DX001 (ip), vehicle: saline
# [6] = dose: 100.0 mg/kg/injection, schedule: Q01DX009 (ip), vehicle: saline with Tween-80
# [7] = dose: 200.0 mg/kg/injection, schedule: Q01DX009 (ip), vehicle: saline with Tween-80
# [8] = dose: 100.0 mg/kg/injection, schedule: Q04DX002 (ip), vehicle: Klucel (hydroxypropylcellulose) (HPC)
# [9] = dose: 200.0 mg/kg/injection, schedule: Q04DX002 (ip), vehicle: Klucel (hydroxypropylcellulose) (HPC)
# [10] = dose: 400.0 mg/kg/injection, schedule: Q04DX002 (ip), vehicle: Klucel (hydroxypropylcellulose) (HPC)
structure (smiles),measurement,setting,value
CC(=O)OCC1OC(n2c(Br)nc3c(N)ncnc32)C2OC(C)(C)OC12 (centres undefined),T/C,"dose: 25.0 mg/kg/injection, schedule: Q01DX001 (ip), vehicle: carboxymethylcellulose (CMC)",95 % of control
same,T/C,"dose: 50.0 mg/kg/injection, schedule: Q01DX001 (ip), vehicle: carboxymethylcellulose (CMC)",100 % of control
same,T/C,"dose: 100.0 mg/kg/injection, schedule: Q01DX001 (ip), vehicle: carboxymethylcellulose (CMC)",93 % of control
CN(Cc1ccccc1)C(=S)[S-].CN(Cc1ccccc1)C(=S)[S-].[Zn],T/C,"dose: 2.5 mg/kg/injection, schedule: Q01DX009 (ip), vehicle: acetone",100 % of control
same,T/C,"dose: 5.0 mg/kg/injection, schedule: Q01DX009 (ip), vehicle: acetone",87 % of control
same,T/C,"dose: 5.0 mg/kg/injection, schedule: Q04DX003 (ip), vehicle: saline",95 % of control
same,T/C,"dose: 10.0 mg/kg/injection, schedule: Q01DX001 (ip), vehicle: saline",91 % of control
same,T/C,"dose: 10.0 mg/kg/injection, schedule: Q01DX009 (ip), vehicle: acetone",89 % of control
same,T/C,"dose: 10.0 mg/kg/injection, schedule: Q04DX003 (ip), vehicle: saline",92 % of control
same,T/C,[1],93 % of control
same,T/C,"dose: 20.0 mg/kg/injection, schedule: Q04DX003 (ip), vehicle: saline",89 % of control
CC1CC([P+](c2ccccc2)(c2ccccc2)c2ccccc2)=NN1 (centres undefined),T/C,[2],120 % of control
same,T/C,[3],113 % of control
CCC(C)N(C(C)=O)C(C)CC (centres undefined),T/C,"dose: 25.0 mg/kg/injection, schedule: Q01DX001 (ip), vehicle: saline",107 % of control
same,T/C,[4],97 % of control
same,T/C,[5],100 % of control
Cc1ccc([N+](=O)[O-])cc1[I+]c1ccccc1C(=O)[O-],T/C,[4],103 % of control
same,T/C,[5],106 % of control
same,T/C,"dose: 200.0 mg/kg/injection, schedule: Q01DX001 (ip), vehicle: saline",91 % of control
same,T/C,"dose: 400.0 mg/kg/injection, schedule: Q01DX001 (ip), vehicle: saline",101 % of control
CCN(CC)CCN(C(=O)C(O)(c1ccccc1)c1ccccc1)C(C)C,T/C,"dose: 100.0 mg/kg/injection, schedule: Q04DX002 (ip), vehicle: saline",101 % of control
same,T/C,"dose: 200.0 mg/kg/injection, schedule: Q04DX002 (ip), vehicle: saline",108 % of control
Cc1ccccc1C(O)(c1ccccc1C)C1(O)CCN(C)CC1,T/C,"dose: 9.37 mg/kg/injection, schedule: Q01DX009 (ip), vehicle: saline",94 % of control
same,T/C,"dose: 18.75 mg/kg/injection, schedule: Q01DX009 (ip), vehicle: saline",96 % of control
same,T/C,"dose: 37.5 mg/kg/injection, schedule: Q01DX009 (ip), vehicle: saline",100 % of control
O=C(NC1CCCC1O)c1ccccc1 (centres undefined),T/C,"dose: 50.0 mg/kg/injection, schedule: Q01DX009 (ip), vehicle: saline with Tween-80",95 % of control
same,T/C,[6],95 % of control
same,T/C,[7],98 % of control
OC(c1ccc(Cl)cc1)(c1ccc(Cl)cc1)C(F)(Cl)Cl,T/C,"dose: 26.6 mg/kg/injection, schedule: Q01DX Z (ip), vehicle: methylcellulose (MC)",87 % of control
same,T/C,"dose: 40.0 mg/kg/injection, schedule: Q01DX Z (ip), vehicle: methylcellulose (MC)",107 % of control
same,T/C,"dose: 60.0 mg/kg/injection, schedule: Q01DX Z (ip), vehicle: methylcellulose (MC)",96 % of control
C=C1N(S(=O)(=O)c2ccc(C)cc2)C(=O)OC12CCCCC2,T/C,[6],95 % of control
same,T/C,[7],103 % of control
same,T/C,"dose: 400.0 mg/kg/injection, schedule: Q01DX009 (ip), vehicle: saline with Tween-80",105 % of control
O=C(O)COc1ccc(Br)cn1,T/C,[8],104 % of control
same,T/C,[9],101 % of control
same,T/C,[10],104 % of control
c1cc2c3c(c1)[I+]c1cccc(c1-3)[I+]2,T/C,[4],112 % of control
same,T/C,[5],116 % of control
CCOC(=O)C1(C(=O)OCC)CCC(C(=O)OCC)(C(=O)OCC)CC1,T/C,[8],101 % of control
same,T/C,[9],101 % of control
same,T/C,[10],101 % of control
CN(C)CC/C=C1\c2ccccc2C(C)(C)c2ccc(Cl)cc21,T/C,"dose: 2.0 mg/kg/injection, schedule: Q01DX015 (ip), vehicle: carboxymethylcellulose (CMC)",97 % of control
same,T/C,"dose: 4.0 mg/kg/injection, schedule: Q01DX015 (ip), vehicle: carboxymethylcellulose (CMC)",96 % of control
same,T/C,"dose: 8.0 mg/kg/injection, schedule: Q01DX015 (ip), vehicle: carboxymethylcellulose (CMC)",92 % of control
same,T/C,"dose: 12.5 mg/kg/injection, schedule: Q01DX009 (ip), vehicle: acetone",86 % of control
same,T/C,"dose: 16.0 mg/kg/injection, schedule: Q01DX015 (ip), vehicle: carboxymethylcellulose (CMC)",102 % of control and 91 % of control
same,T/C,"dose: 25.0 mg/kg/injection, schedule: Q01DX009 (ip), vehicle: acetone",94 % of control
same,T/C,[2],96 % of control
same,T/C,"dose: 32.0 mg/kg/injection, schedule: Q01DX015 (ip), vehicle: carboxymethylcellulose (CMC)",98 % of control
same,T/C,[3],91 % of control
same,T/C,[5],87 % of control
O=C1c2ccccc2CC/C(=N\O)C1c1ccccc1 (centres undefined),T/C,"dose: 100.0 mg/kg/injection, schedule: Q01DX001 (ip), vehicle: saline with Tween-80",107 % of control
same,T/C,"dose: 200.0 mg/kg/injection, schedule: Q01DX001 (ip), vehicle: saline with Tween-80",98 % of control
same,T/C,"dose: 400.0 mg/kg/injection, schedule: Q01DX001 (ip), vehicle: saline with Tween-80",104 % of control
Cc1ccc(C(C)C)c(OCC(O)Cn2ccnc2)c1 (centres undefined),T/C,[1],103 % of control
same,T/C,"dose: 40.0 mg/kg/injection, schedule: Q01DX001 (ip), vehicle: saline",101 % of control
same,T/C,"dose: 80.0 mg/kg/injection, schedule: Q01DX001 (ip), vehicle: saline",88 % of control
same,T/C,[5],94 % of control
O=C1N(C[P+](c2ccccc2)(c2ccccc2)c2ccccc2)CCCN1C[P+](c1ccccc1)(c1ccccc1)c1ccccc1,T/C,"dose: 1.56 mg/kg/injection, schedule: Q01DX009 (ip), vehicle: saline",96 % of control
same,T/C,"dose: 1.56 mg/kg/injection, schedule: Q04DX002 (ip), vehicle: saline",150 % of control
same,T/C,"dose: 3.12 mg/kg/injection, schedule: Q01DX005 (ip), vehicle: saline",100 % of control
same,T/C,"dose: 3.12 mg/kg/injection, schedule: Q01DX009 (ip), vehicle: saline",93 % of control
same,T/C,"dose: 3.12 mg/kg/injection, schedule: Q04DX002 (ip), vehicle: saline",88 % of control
same,T/C,"dose: 6.25 mg/kg/injection, schedule: Q01DX005 (ip), vehicle: saline",94 % of control
same,T/C,"dose: 6.25 mg/kg/injection, schedule: Q01DX009 (ip), vehicle: saline",86 % of control
same,T/C,"dose: 6.25 mg/kg/injection, schedule: Q04DX002 (ip), vehicle: saline",95 % of control
O=C(Nc1ccc(Cl)c(C(F)(F)F)c1)Oc1cccnc1,T/C,"dose: 25.0 mg/kg/injection, schedule: Q01DX009 (ip), vehicle: Klucel (hydroxypropylcellulose) (HPC)",94 % of control
same,T/C,"dose: 100.0 mg/kg/injection, schedule: Q01DX009 (ip), vehicle: Klucel (hydroxypropylcellulose) (HPC)",92 % of control and 93 % of control
c1nc2c([nH]1)CNCC2,T/C,"dose: 100.0 mg/kg/injection, schedule: Q01DX009 (ip), vehicle: saline",94 % of control
same,T/C,"dose: 100.0 mg/kg/injection, schedule: Q04DX003 (ip), vehicle: saline",100 % of control
same,T/C,"dose: 200.0 mg/kg/injection, schedule: Q01DX009 (ip), vehicle: saline",93 % of control
same,T/C,"dose: 200.0 mg/kg/injection, schedule: Q04DX003 (ip), vehicle: saline",98 % of control
same,T/C,"dose: 400.0 mg/kg/injection, schedule: Q01DX009 (ip), vehicle: saline",94 % of control
same,T/C,"dose: 400.0 mg/kg/injection, schedule: Q04DX003 (ip), vehicle: saline",108 % of control
c1ccc(Cc2nnc(Cc3ccccc3)nn2)cc1,T/C,[8],91 % of control
same,T/C,[9],102 % of control
same,T/C,[10],105 % of control
C=CCNCCN1CCN(CCCN2c3ccccc3Sc3ccc(C(F)(F)F)cc32)CC1,T/C,"dose: 6.25 mg/kg/injection, schedule: Q04DX003 (ip), vehicle: saline",106 % of control
same,T/C,"dose: 12.5 mg/kg/injection, schedule: Q01DX009 (ip), vehicle: saline",103 % of control
same,T/C,"dose: 12.5 mg/kg/injection, schedule: Q04DX003 (ip), vehicle: saline",98 % of control
same,T/C,"dose: 25.0 mg/kg/injection, schedule: Q01DX009 (ip), vehicle: saline",102 % of control
same,T/C,[2],102 % of control
same,T/C,[3],96 % of control
